Biological target: T1, VLA-4 (α4β1 integrin) (Homo sapiens, UniProt P05556+P13612)
T1 construct: followed by 10 µl of Ramos cell-derived VLA-4; endogenous in cells; host or cells: Ramos cells (VLA-4 preparation derived from the cells)
Test: VLA-4 / VCAM-1 Screening Assay (solid-phase, dual antibody ELISA)
Conditions: inhibition of binding of Ramos cell-derived VLA-4 to immobilized recombinant human VCAM-1
Protocol: VLA-4 / VCAM-1 Screening Assay
VLA-4 antagonist activity, defined as ability to compete for binding to immobilized VCAM-1, was quantitated using a solid-phase, dual antibody ELISA. VLA-4 (α4β1 integrin) bound to VCAM-1 was detected by a complex of anti-integrin β1 antibody: HRP-conjugated anti-mouse IgG: chromogenic substrate (K-Blue). Initially, this entailed coating 96 well plates (Nunc Maxisorp) with recombinant human VCAM-1 (0.4 µg in 100 µl PBS), sealing each plate and then allowing the plates to stand at 4°C for ^~18 hr.

T1 sequence (P13612 34-1032): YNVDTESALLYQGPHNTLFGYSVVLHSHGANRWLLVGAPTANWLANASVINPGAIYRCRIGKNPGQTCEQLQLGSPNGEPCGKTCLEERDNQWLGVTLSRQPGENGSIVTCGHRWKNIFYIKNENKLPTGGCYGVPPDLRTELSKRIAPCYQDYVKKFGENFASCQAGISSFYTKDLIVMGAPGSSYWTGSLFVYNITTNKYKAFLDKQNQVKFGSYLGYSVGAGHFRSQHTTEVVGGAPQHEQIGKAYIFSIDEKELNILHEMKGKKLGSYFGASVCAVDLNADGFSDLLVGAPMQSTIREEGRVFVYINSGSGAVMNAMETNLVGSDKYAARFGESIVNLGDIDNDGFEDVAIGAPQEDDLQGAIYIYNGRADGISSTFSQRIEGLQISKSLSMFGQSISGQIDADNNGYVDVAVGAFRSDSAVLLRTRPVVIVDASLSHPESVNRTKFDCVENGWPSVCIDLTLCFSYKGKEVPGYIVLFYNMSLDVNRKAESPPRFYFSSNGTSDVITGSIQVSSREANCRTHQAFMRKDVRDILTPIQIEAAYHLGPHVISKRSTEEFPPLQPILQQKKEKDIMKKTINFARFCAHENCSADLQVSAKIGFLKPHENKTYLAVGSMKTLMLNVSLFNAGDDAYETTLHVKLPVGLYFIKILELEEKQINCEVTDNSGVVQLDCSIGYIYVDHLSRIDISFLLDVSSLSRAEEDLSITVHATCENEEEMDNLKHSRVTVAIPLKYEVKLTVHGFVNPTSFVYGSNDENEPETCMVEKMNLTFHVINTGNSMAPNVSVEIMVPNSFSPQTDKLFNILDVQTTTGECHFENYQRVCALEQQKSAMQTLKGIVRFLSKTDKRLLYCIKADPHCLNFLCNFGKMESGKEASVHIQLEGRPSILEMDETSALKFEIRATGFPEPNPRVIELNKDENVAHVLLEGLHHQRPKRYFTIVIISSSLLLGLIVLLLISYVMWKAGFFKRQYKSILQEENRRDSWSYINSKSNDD
T1 sequence (P05556 21-798): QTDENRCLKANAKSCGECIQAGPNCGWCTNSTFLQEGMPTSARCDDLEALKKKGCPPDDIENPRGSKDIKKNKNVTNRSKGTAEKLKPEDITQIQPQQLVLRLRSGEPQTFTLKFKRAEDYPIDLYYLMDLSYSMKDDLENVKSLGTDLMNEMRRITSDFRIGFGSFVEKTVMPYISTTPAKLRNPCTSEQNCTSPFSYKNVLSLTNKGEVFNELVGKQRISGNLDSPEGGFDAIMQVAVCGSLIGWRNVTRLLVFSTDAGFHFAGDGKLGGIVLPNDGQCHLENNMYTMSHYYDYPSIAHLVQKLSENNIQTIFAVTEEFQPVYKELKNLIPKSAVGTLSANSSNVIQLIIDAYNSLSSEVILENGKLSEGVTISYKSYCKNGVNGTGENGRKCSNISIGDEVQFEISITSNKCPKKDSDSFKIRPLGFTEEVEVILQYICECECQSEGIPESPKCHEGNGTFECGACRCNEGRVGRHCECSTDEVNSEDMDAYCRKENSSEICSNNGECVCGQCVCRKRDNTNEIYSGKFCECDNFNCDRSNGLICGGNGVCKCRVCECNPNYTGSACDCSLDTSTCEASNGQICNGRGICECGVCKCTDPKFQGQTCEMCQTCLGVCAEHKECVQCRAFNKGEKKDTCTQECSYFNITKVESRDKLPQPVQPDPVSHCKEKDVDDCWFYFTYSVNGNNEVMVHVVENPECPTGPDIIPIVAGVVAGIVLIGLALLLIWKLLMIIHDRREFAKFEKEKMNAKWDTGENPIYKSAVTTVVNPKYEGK

IC50: 0.26 nM
SMILES: COCCC1(C(=O)N[C@@H](Cc2ccc(NC(=O)c3c(Cl)cccc3Cl)cc2)C(=O)O)CCCC1 [Example 59, 4-[[(2,6-dichlorophenyl)carbonyl]amino]-N-[[1-(2-methoxyethyl)cyclopentyl]carbonyl]-L-phenylalanine]

Source: patent EP1005446B1, “N-AROYLPHENYLALANINE DERIVATIVES” (priority 1997, dated 1999)
